Results as given in ChEMBL document CHEMBL1142074, “In vitro activities of cloxyquin (5-chloroquinolin-8-ol) against Mycobacterium tuberculosis” (2007).

Experiments:
Format in all cases: functional
[1] = tested on: Mycobacterium tuberculosis; assay: Antimycobacterial activity against thiacetazone-resistant Mycobacterium tuberculosis H37Rv ATCC 35829 by microplate alamar blue assay
[2] = tested on: Mycobacterium tuberculosis; assay: Antimycobacterial activity against ethambutol-resistant Mycobacterium tuberculosis H37Rv ATCC 35837 by microplate alamar blue assay
[3] = tested on: Mycobacterium tuberculosis; assay: Antimycobacterial activity against pyrazinamide-resistant Mycobacterium tuberculosis H37Rv ATCC 35828 by microplate alamar blue assay
[4] = tested on: Mycobacterium tuberculosis; assay: Antimycobacterial activity against ethionamide-resistant Mycobacterium tuberculosis H37Rv ATCC 35830 by microplate alamar blue assay
[5] = tested on: Mycobacterium tuberculosis; assay: Antimycobacterial activity against kanamycin-resistant Mycobacterium tuberculosis H37Rv ATCC 35827 by microplate alamar blue assay
[6] = tested on: Mycobacterium tuberculosis; assay: Antimycobacterial activity against cycloserine-resistant Mycobacterium tuberculosis H37Rv ATCC 35826 by microplate alamar blue assay

Measured: MIC

Oc1ccc(Cl)c2cccnc12 [CLOXYQUIN]
0.125 µg/mL: all assays above
